Experiment [1] deals with Pan02 murine pancreatic adenocarcinoma. As to the kind of experiment: Efficacy study in the syngenic orthotopic Pan02 tumor model (Example 15). To be noted: oral, 21 days. It is filed as in vivo, female C57BL/6 mice. From the text: The purpose of this study was to obtain information about the efficacy of the oral combination of Chamomile extract (MR31E25C1 and Retinoic acid (RetAcid) in a syngenic orthotropic PAN02 tumor murine model.
Young (approximately 7 weeks) female C57BL/6 mice were purchased from the National Cancer Institute (Frederick, Md.) and maintained in Aurigon Life Science GmbH's animal care facility with ad libitum access to water and mouse chow (Ssniff® R/M-H). The animals were divided into groups of 10 animals.
All animals, except those in the non-inoculated control group, were given an intrapancreatic injection of 2.5×10^5 Pan02 tumor cells each. Pan02 is a murine pancreatic adenocarcinoma cell line syngeneic to the C57BL/6 species. First treatment was given orally 15 days after the inoculation for a total period of 21 days.
Necropsy was performed at the end of the in-life phase or immediately on animals found dead or killed in extremis. The weights of the brain, whole pancreas, pancreatic tumor, spleen, and liver were determined and the number/size of metastases on the surface of the spleen and liver, peritoneal, kidney, ovary, diaphragm metastases, and metastases of the lymph nodes (if applicable) were recorded. Additionally, the size of the pancreatic tumors of the animals was measured.
The groups were as follows:
Group 1: Non-inoculated, untreated control group. […]

The subject of experiment [2] is H460 human large cell lung cancer cell line. As to the kind of experiment: Cellular growth of H460 cells, AMT without chamomile, with MR15E14 or with CHARE (Example 12). It counts as cell-based. The settings on record: extracts 21 μg/ml, 1% AMT, retinoic acid 1 μg/ml or 1% ethanol, 6 days, FIG. 3A/3B. As for the experimental part:
The following experiments were performed to compare the composition of the present invention with the teaching of WO 03101479 A1: The human large cell lung cancer cell line, H460, was obtained from the American Type Culture Collection. The cells were cultivated in RPMI-1640 medium containing 10% FBS and kept in a humidified incubator at 37° C. and 5% CO2. Cultures used in subsequent experiments were passaged less than 25 times. The H460 cells were seeded at 14375 cells/well (cell concentration of 10,000 cells/ml) in 12 well plates and were left to adhere overnight.
The H460 cells were incubated with the samples and sample pairs for a total of 6 days with one dose and media refreshment. After 6 days, all cells were harvested to be analyzed. The cell number was determined using flow cytometry. Live cells were differentiated from dead cells by adding Propidium iodide (PI). In short, cells were trypsinized, centrifuged and resuspended in 500 μl of media. 2 μl of PI (1 mg/ml) was added to 400 μl of cell suspension. Since the cells number present in 10 μl of the cell suspension was measured, multiple measurements for each well were taken. […] Solvent control was set at 100%.

The test system is the same in experiment [3]. As to the kind of experiment: Cellular growth of H460 cells, flow cytometry cell count with PI (Example 11). It is filed as cell-based. The settings on record: retinoic acid 1 μg/ml, extracts 21 μg/ml, 6 days, 2% ethanol, FIG. 2. As for the experimental part: The human large cell lung cancer cell line, H460, was obtained from the American Type Culture Collection. The cells were cultivated in RPMI-1640 medium containing 10% FBS and kept in a humidified incubator at 37° C. and 5% CO2. Cultures used in subsequent experiments were passaged less than 25 times. The H460 cells were seeded at 14375 cells/well (cell concentration of 10,000 cells/ml) in 12 well plates and were left to adhere overnight.
MR15E14, CHARE and Retinoic acid prepared as described in examples 2, 4 and 9 respectively including a solvent control (2% ethanol) were added to the cells. Media were replaced once after 3 days of incubation with fresh media and samples. After 6 days, all cells were harvested to be analyzed. The cell number was determined using flow cytometry. Live cells were differentiated from dead cells by adding Propidium iodide (PI). Live cells would be PI negative since the dye would be excluded from viable cells.
In short, cells were trypsinized, centrifuged and resuspended in 500 μl of media. 2 μl of PI (1 mg/ml) was added to 400 μl of cell suspension. Since the cells number present in 10 μl of the cell suspension was measured, multiple measurements for each well were taken.
Solvent control was set at 100%.

For experiment [4], the system named is A172 human glioblastoma cell line. As to the kind of experiment: Cellular growth of A172 cells, live cell count with Trypan Blue (Example 10). It counts as cell-based. The settings on record: retinyl acetate 1 μg/ml, 6 days, FIG. 1A. Here is the method: The human glioblastoma cell lines A172 and U87 MG were cultivated in culture medium containing 10% FBS and kept in a humidified incubator at 37° C. and 5% CO2. Cultures used in subsequent experiments were passaged less than 25 times. The cells were seeded at 100,000 cells in T25 cm2 culture flasks (cell concentration of 10,000 cells/ml). MR15E7 and Retinyl Acetate prepared according to examples 1 and 8 respectively were added alone as individual or together in combination (A172 FIGS. 1A and U87 FIG. 1B). The solvent control was 2% ethanol. Media were replaced once after 3 days of incubation with fresh media and samples. After 6 days, all cells were harvested to be analyzed. The cell number was determined using a cell counter (Countess® automated cell counter, Invitrogen). Live cells were differentiated from dead cells by adding Trypan Blue. Live cells would be Trypan Blue negative since the dye would be excluded from viable cells. […] Solvent control was set at 100%. […] The solvent control and the final ethanol concentration for every well was 2%.

Experiment [5] concerns U87 MG human glioblastoma cell line. As to the kind of experiment: Cellular growth of U87 MG cells, live cell count with Trypan Blue (Example 10). It counts as cell-based. To be noted: MR15E7 30 μg/ml, retinyl acetate 1 μg/ml, 6 days, FIG. 1B. Here is the method:
The human glioblastoma cell lines A172 and U87 MG were cultivated in culture medium containing 10% FBS and kept in a humidified incubator at 37° C. and 5% CO2. Cultures used in subsequent experiments were passaged less than 25 times. The cells were seeded at 100,000 cells in T25 cm2 culture flasks (cell concentration of 10,000 cells/ml). MR15E7 and Retinyl Acetate prepared according to examples 1 and 8 respectively were added alone as individual or together in combination (A172 FIGS. 1A and U87 FIG. 1B). The solvent control was 2% ethanol.
Media were replaced once after 3 days of incubation with fresh media and samples. After 6 days, all cells were harvested to be analyzed. The cell number was determined using a cell counter (Countess® automated cell counter, Invitrogen).
Live cells were differentiated from dead cells by adding Trypan Blue. Live cells would be Trypan Blue negative since the dye would be excluded from viable cells.
Solvent control was set at 100%. […] The potential growth inhibitory effects of retinyl acetate (1 μg/ml), MR15E7 (30 μg/ml) and the combination of 30 μg/ml of the extract and retinyl acetate (1 μg/ml) were observed on both the A172 (A) and U87 MG (B) cell lines. The solvent control and the final ethanol concentration for every well was 2%.

“Also recorded” adds a separate entry of the source.

On to `CC1=C(/C=C/C(C)=C/C=C/C(C)=C/C(=O)O)C(C)(C)CCC1` [Retinoic acid, all-trans-Retinoic acid], for which, in experiment [1] (MR31E25C1 484.5 mg/kg 3x daily, retinoic acid 25 mg/kg 2x daily for 2 days, then 10 mg/kg daily, FIG. 5), the “median tumor volume” value was “even aggravated the situation”. Further, the “cumulative metastases area in various organs” value in experiment [1] (same doses, vs untreated PAN02 inoculated group, FIG. 6) is recorded as “only slight reduction of the overall metastasis development”. Also, the “effect on cellular growth” value in experiment [2] is listed as “slight growth retarding effect”; in experiment [3], “slightly reduced the cellular growth”.
`CC(=O)OC/C=C(C)/C=C/C=C(C)/C=C/C1=C(C)CCCC1(C)C` [retinyl acetate, Retinyl Acetate]: the “effect on cellular growth” value in experiment [4] and in experiment [5] was “did not affect cellular growth; also recorded: do not affect cellular growth” each time.

(Values after patent US10028989B2, “Composition comprising Retinol, a precursor or a reaction product of it and a plant extract from at least one Chamomilla plant for the treatment of cancer” (ALPINIA LAUDANUM INSTITUTE OF PHYTOPHARMACEUTICAL SCIENCES …, priority 2010, dated 2018).)
